Patent publication US20140081017A1, “Histone Deacetylase Inhibitors for Enhancing Activity of Antifungal Agents” (METHYLGENE INC., priority 2012, published 2014)
Converted amounts (≈) assume the structure as drawn. Like-named read-outs stand apart in the source and are kept apart here.

How the values were obtained:
Candida glabrata = assay: Minimal Inhibitory Concentration (MIC) assay, broth microdilution per CLSI; assay type: cell-based; settings: Nakaseomyces glabratus, read-out: Minimum Inhibitory Concentrations against Yeast Isolates, Candida glabrata;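 note: two read times 24 hr and 48 hr of incubation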
Method in brief: (§1)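 Yeast isolates were grown overnight at 35° C on Sabouraud dextrose agar, adjusted to 0.5 McFarland in saline and diluted 1:100 in RPMI buffered with 0.165 M MOPS, pH 7.0. Compounds in DMSO were serially diluted 1:1. After 24-48 hr at 35° C, MIC was the lowest concentration inhibiting visible growth.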

Candida albicans = assay: as above; assay type: cell-based; settings: Candida albicans, read-out: Minimum Inhibitory Concentrations against Yeast Isolates, Candida albicans;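 note: two read times 24 hr and 48 hr of incubation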
Method in brief: as §1

Candida parapsilosis = assay: as above; assay type: cell-based; settings: Lodderomyces parapsilosis, read-out: Minimum Inhibitory Concentrations against Yeast Isolates, Candida parapsilosis;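 note: two read times 24 hr and 48 hr of incubation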
Method in brief: as §1

C. glabrata = assay: Checkerboard FIC assay in combination with fluconazole (MIC alone and in combination, FICI); assay type: cell-based, Candida glabrata; settings: for FICI of combination resulting in fluconazole MIC of: 2 ug/mL / FICI of combination resulting in fluconazole MIC of: 4 ug/mL / FICI of combination resulting in fluconazole MIC of: 8 ug/mL: FICI calculated using a fluconazole MIC of 16 μg/mL; for FICI of combination resulting in fluconazole MIC of: 2 ug/mL (value in parenthesis) / FICI of combination resulting in fluconazole MIC of: 4 ug/mL (value in parenthesis) / FICI of combination resulting in fluconazole MIC of: 8 ug/mL (value in parenthesis): FICI using a fluconazole MIC of 128 μg/mL; for MIC: Nakaseomyces glabratus; for Multiple of compound MIC to synergize fluconazole MIC to 2 ug/mL / Multiple of compound MIC to synergize fluconazole MIC to 4 ug/mL / Multiple of compound MIC to synergize fluconazole MIC to 8 ug/mL: concentration in combination as multiple of the compound's MIC alone; for Multiple of compound MIC to synergize fluconazole MIC to 2 ug/mL: fluconazole MIC 2 ug/mL; for Multiple of compound MIC to synergize fluconazole MIC to 4 ug/mL: fluconazole MIC 4 ug/mL; for Multiple of compound MIC to synergize fluconazole MIC to 8 ug/mL: fluconazole MIC 8 ug/mL; for Concentration of Methylgene compound to synergize fluconazole MIC to 2 ug/mL / Concentration of Methylgene compound to synergize fluconazole MIC to 4 ug/mL / Concentration of Methylgene compound to synergize fluconazole MIC to 8 ug/mL: in combination with fluconazole; for Concentration of Methylgene compound to synergize fluconazole MIC to 2 ug/mL: fluconazole MIC lowered to 2 ug/mL; for Concentration of Methylgene compound to synergize fluconazole MIC to 4 ug/mL: fluconazole MIC lowered to 4 ug/mL; for Concentration of Methylgene compound to synergize fluconazole MIC to 8 ug/mL: fluconazole MIC lowered to 8 ug/mL
Method in brief: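 A fluconazole synergy checkerboard was run against C. glabrata in MOPS-buffered RPMI (pH 7.0) for about 48 h at 35 °C. Each agent was diluted 2-fold, with one row and one column holding each agent alone for MIC determination. FICI was calculated from these MICs, using a 0.5 McFarland inoculum diluted 1:100 per CLSI.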

[1] = 24 hr reading (first value of cell 24 hr/48 hr)
[2] = 48 hr reading (second value of cell 24 hr/48 hr)
[3] = MIC of the example compound alone against C. glabrata in the checkerboard assay, approximately 48 hr, read-out: Methylgene MIC
[4] = test compound alone, C. glabrata, approx. 48 hr at 35° C., read-out: Compound MIC

Structure (SMILES)	MIC (Candida glabrata; [1]) [µg/mL]	MIC (Candida glabrata; [2]) [µg/mL]	MIC (Candida albicans; [1]) [µg/mL]	MIC (Candida albicans; [2]) [µg/mL]	MIC (Candida parapsilosis; [1]) [µg/mL]	MIC (Candida parapsilosis; [2]) [µg/mL]	FICI of combination resulting in fluconazole MIC of: 2 ug/mL (C. glabrata; C. glabrata)	FICI of combination resulting in fluconazole MIC of: 4 ug/mL (C. glabrata; C. glabrata)	FICI of combination resulting in fluconazole MIC of: 8 ug/mL (C. glabrata; C. glabrata)	FICI of combination resulting in fluconazole MIC of: 2 ug/mL (value in parenthesis) (C. glabrata; C. glabrata)	FICI of combination resulting in fluconazole MIC of: 4 ug/mL (value in parenthesis) (C. glabrata; C. glabrata)	FICI of combination resulting in fluconazole MIC of: 8 ug/mL (value in parenthesis) (C. glabrata; C. glabrata)	MIC (C. glabrata; [3]) [µg/mL]	MIC (C. glabrata; [4]) [µg/mL]	Multiple of compound MIC to synergize fluconazole MIC to 2 ug/mL (C. glabrata)	Multiple of compound MIC to synergize fluconazole MIC to 4 ug/mL (C. glabrata)	Multiple of compound MIC to synergize fluconazole MIC to 8 ug/mL (C. glabrata)	Concentration of Methylgene compound to synergize fluconazole MIC to 2 ug/mL (C. glabrata; C. glabrata) [µg/mL]	Concentration of Methylgene compound to synergize fluconazole MIC to 4 ug/mL (C. glabrata; C. glabrata) [µg/mL]	Concentration of Methylgene compound to synergize fluconazole MIC to 8 ug/mL (C. glabrata; C. glabrata) [µg/mL]
O=C(Cc1ccc(CCCCc2ccc(C(=O)N3CCN(C/C=C/c4ccccc4)CC3)cc2)cc1)NO [Example 20, (E)-2-(4-(4-(4-(4-cinnamylpiperazine-1-carbonyl)phenyl)butyl)phenyl)-N-hydroxyacetamide]	2 (≈ 3.91 µM)	2 (≈ 3.91 µM)	> 8	> 8	> 8	> 8	0.563	0.375	0.500	0.516	0.281	0.313	1	1	(½x)	(¼x)	(¼x)	0.5	0.25	0.25
O=C(Cc1ccc(CCCCc2ccc(C(=O)N3CCN(CCn4ccnc4)CC3)cc2)cc1)NO [Example 21, 2-(4-(4-(4-(4-(2-(1H-imidazol-1-yl)ethyl)piperazine-1-carbonyl)phenyl)butyl)phenyl)-N-hydroxyacetamide]	16 (≈ 32.7 µM)	32 (≈ 65.4 µM)	> 64	> 64	> 64	> 64	0.313	0.250	0.375	0.266	0.156	0.188	16	16	(¼x)	(⅛X)	(⅛X)	4	2	2
O=C(Cc1ccc(CCCCc2ccc(C(=O)NCCCn3ccnc3)cc2)cc1)NO [Example 22, N-(3-(1H-imidazol-1-yl)propyl)-4-(4-(4-(2-(hydroxyamino)-2-oxoethyl)phenyl)butyl)benzamide]	8 (≈ 18.4 µM)	> 8	> 8	> 8	> 8	> 8	0.188	0.250	0.313	0.141	0.156	0.125	16	16	(⅛x)	(⅛x)	( 1/16x)	2	2	1
Cn1cnc(CNC(=O)c2ccc(CCCCc3ccc(CC(=O)NO)cc3)cc2)c1 [Example 23, 4-(4-(4-(2-(hydroxyamino)-2-oxoethyl)phenyl)butyl)-N-((1-methyl-1H-imidazol-4-yl)methyl)benzamide]	8 (≈ 19 µM)	> 8	> 8	> 8	> 8	> 8	0.313	0.250	0.375	0.266	0.156	0.188	> 8	> 8				4	2	2
O=C(Cc1ccc(CCCCc2ccc(C(=O)N3CCOCCOCCOCCOCCOCC3)cc2)cc1)NO [Example 24, 2-(4-(4-(4-(1,4,7,10,13-pentaoxa-16-azacyclooctadecane-16-carbonyl)phenyl)butyl)phenyl)-N-hydroxyacetamide]	16 (≈ 27.9 µM)	64 (≈ 112 µM)	> 64	> 64	> 64	> 64	0.313	0.250	0.313	0.266	0.156	0.125	> 16	> 16				8	4	2
O=C(Cc1ccc(CCCC(O)c2ccccc2)cc1)NO (stereo not shown) [Example 25, N-hydroxy-2-(4-(4-hydroxy-4-phenylbutyl)phenyl)acetamide]	16 (≈ 53.4 µM)	64 (≈ 214 µM)	> 64	> 64	> 64	> 64	0.563	0.375	0.375	0.516	0.281	0.188	> 16	> 16				16	8	4
O=C(Cc1ccc(CCCC(F)c2ccccc2)cc1)NO (stereo not shown) [Example 26, 2-(4-(4-fluoro-4-phenylbutyl)phenyl)-N-hydroxyacetamide]	2 (≈ 6.64 µM)	8 (≈ 26.5 µM)	4 (≈ 13.3 µM)	8 (≈ 26.5 µM)	4 (≈ 13.3 µM)	8 (≈ 26.5 µM)	0.313	0.250	0.313	0.266	0.156	0.125	8	8	(¼x)	(⅛x)	( 1/16x)	2	1	0.5
O=C(Cc1ccc(CCC/C(=N\O)c2ccccc2)cc1)NO [Example 27, (E)-N-hydroxy-2-(4-(4-(hydroxyimino)-4-phenylbutyl)phenyl) acetamide]	8 (≈ 25.6 µM)	16 (≈ 51.2 µM)	64 (≈ 205 µM)	64 (≈ 205 µM)	> 64	> 64	0.313	0.375	0.375	0.266	0.281	0.188	16	16	(¼x)	(¼x)	(⅛x)	4	4	2
